According to US20150141470A1, “DIAGNOSTIC AND TREATMENT METHODS IN PATIENTS HAVING OR AT RISK OF DEVELOPING RESISTANCE TO CANCER THERAPY” (The Broad Institute, Inc., priority 2012, published 2015):

What was measured:
Assay type in all cases: cell-based
A375 = test: PLX4720 and MAPK inhibitor sensitivity of ORF-expressing A375 (secondary screen); details: for effect of ectopic GEF expression on sensitivity to the inhibitor: A375 transfected with GEF ORFS; for sensitivity of A375 to the inhibitor: parental A375 cell line
Protocol: A375 (1.5×10^3) and SKMEL28 cells (3×10^3) were seeded in 96-well plates for 18 h. ORF-expressing lentivirus was added at a 1:10 dilution in the presence of 8 μg/ml polybrene, and centrifuged at 2250 RPM and 37° C. for 1 h. Following centrifugation, virus-containing media was changed to normal growth media and allowed to incubate for 18 h. Twenty-four hours after infection, DMSO (1:1000) or 10× PLX4720 (in DMSO) was added to a final concentration of 100, 10, 1, 0.1, 0.01, 0.001, 0.0001 or 0.00001 μM. Cell viability was assayed using WST-1 (Roche), per manufacturer recommendation, 4 days after the addition of PLX4720.
Cultured cells were seeded into 96-well plates (3,000 cells per well) for all melanoma cell lines; 1,500 cells were seeded for A375. Twenty-four hours after seeding, serial dilutions of the relevant compound were prepared in DMSO added to cells, yielding final drug concentrations ranging from 100 μM to […], with the final volume of DMSO not exceeding 1%. Cells were incubated for 96 h following addition of drug. Cell viability was measured using the WST1 viability assay (Roche). Viability was calculated as a percentage of control (untreated cells) after background subtraction. A minimum of six replicates were performed for each cell line and drug combination. Data from growth-inhibition assays were modeled using a nonlinear regression curve fit with a sigmoid dose-response. […] Sigmoid-response curves that crossed the 50% inhibition point at or above 10 μM have GI50 values annotated as >10 μM. For single-dose studies, the identical protocol was followed, using a single dose of indicated drug (1 μM unless otherwise noted).

WM266.4 [1] = test: Single-dose cell viability of forskolin-treated cells with MAPK-pathway and HDAC inhibitors; details: sub-lethal doses; Panobinostat 10 nM, Vorinostat 1.5 μM, Entinostat 1.5 μM; 96 hrs
Protocol: Twenty-four hours after seeding, serial dilutions of the relevant compound were prepared in DMSO to 1000× stocks. Drug stocks were then diluted 1:100 into appropriate growth media and added to cells at a dilution of 1:10 (lx final), yielding drug concentrations ranging from 100 μM to 1×10-5 μM, with the final volume of DMSO not exceeding 1%. When indicated, forskolin (10 μM), IBMX (100 μM), dbcAMP (100 μM) were added concurrent with MAPK-pathway inhibitors. Cells were incubated for 96 h following addition of drug. Cell viability was measured using CellTiterGlo viability assay (Promega). Viability was calculated as a percentage of control (DMSO treated cells). A minimum of six replicates were performed for each cell line and drug combination. Data from growth-inhibition assays were modeled using a nonlinear regression curve fit with a sigmoid dose-response. […] For single-dose studies, WM266.4 were seeded at 5,000 cells/well in 96-well, white-walled, clear bottom plates and the identical protocol (above) was followed, using a single dose of indicated drug.

WM266.4 [2] = test: Immunoblots of MITF, SOX10, acetylated histone H3 and other proteins in melanoma cells; details: for acetylated histone H3: WM266.4, 18 hours; for SOX10 and MITF expression: WM266.4, independent of ERK phosphorylation
Protocol: (§1) Adherent cells were washed once with ice-cold PBS and lysed passively with 1% NP-40 buffer [150 mM NaCl, 50 mM Tris pH 7.5, 2 mM EDTA pH 8, 25 mM NaF and 1% NP-40] containing 2× protease inhibitors (Roche) and 1× Phosphatase Inhibitor Cocktails I and II (CalBioChem). Lysates were quantified (Bradford assay), normalized, reduced, denatured (95° C.) and resolved by SDS gel electrophoresis on 4-20% Tris/Glycine gels (Invitrogen). […] After incubation with the appropriate secondary antibody (anti-rabbit, anti-mouse or anti-goat IgG, IRDye-linked; 1:15,000 dilution; IRDye 800CW, 1:20,000 IRDye 680LT, LiCOR), proteins were imaged using an Odyssey CLx scanner (LiCOR).

WM266.4 [3] = test: Quantitative RT/PCR of MITF, FOS, NR4A1 and NR4A2 mRNA; details: within 1 hour of treatment, absence of MEK inhibitor
Protocol: mRNA was extracted from WM266.4 using the RNeasy kit (Qiagen) and homogenized using the Qiashredder kit (Qiagen). Total mRNA was used for subsequent reverse transcription using the SuperScript III First-Strand Synthesis SuperMix (Invitrogen). 5 μl of reverse-transcribed cDNA was used for quantitative PCR using SYBR Green PCR Master Mix and gene-specific primers, in quadruplicate, using an ABI PRISM 7900 Real Time PCR System. Primers used for detection were as follows; NR4A2 forward: 5′-GTTCAGGCGCAGTATGGGTC-3′ (SEQ ID NO: 7); NR4A2 reverse: 5′-AGAGTGGTAACTGTAGCTCTGAG-3′ (SEQ ID NO: 8); NR4A1 forward: 5′-ATG CCC TGT ATC CAA GCC C-3′ (SEQ ID NO: 9); NR4A1 reverse: 5′-GTGTAGCCGTCCATGAAGGT-3′ (SEQ ID NO: 10); DUSP6 forward: 5′-CTG CCG GGC GTT CTA CCT-3′ (SEQ ID NO: 11); DUSP6 reverse: 5′-CCAGCCAAGCAATGTACCAAG-3′ (SEQ ID NO: 12); MITF forward: 5′-TGC CCA GGC ATG AAC ACA C-3′ (SEQ ID NO: 13); MITF reverse: 5′-TGGGAAAAATACACGCTGTGAG-3′ (SEQ ID NO: 14); FOS forward: 5′-CACTCCAAGCGGAGACAGAC-3′ (SEQ ID NO: 15); FOS reverse: 5′-AGGTCATCAGGGATCTTGCAG-3′ (SEQ ID NO: 16); TBP forward: 5′-CCCGAAACGCCGAATATAATCC-3′ (SEQ ID No: 17); TBP reverse: 5′-GACTGTTCTTCACTCTTGGCTC-3′ (SEQ ID NO: 18). Relative expression was determined using the comparative CT method (Applied Biosystems).

WM266.4 [4] = test: Western blot of CREB and ERK phosphorylation; details: WM266.4, 1 hr treatment
Protocol: as §1

Cn1cnc2c(F)c(Nc3ccc(Br)cc3Cl)c(C(=O)NOCCO)cc21 [AZD6244]
effect of ectopic GEF expression on sensitivity to the inhibitor (A375): decreased sensitivity | sensitivity of A375 to the inhibitor (A375): sensitive

Nc1ccccc1NC(=O)c1ccc(CNC(=O)OCc2cccnc2)cc1 [Entinostat]
sensitivity of forskolin-treated cells to MAPK-pathway inhibitors (WM266.4 [1]): restored sensitivity to MAPK-pathway inhibitors to levels approaching parental cells

O=S(=O)(NCCNC/C=C/c1ccc(Br)cc1)c1cccc2cnccc12 [H89]
effect on forskolin-mediated rescue of MITF protein expression (WM266.4 [2]; WM266.4, 10 μM H89 pre-treatment): largely abrogated

Cc1[nH]c2ccccc2c1CCNCc1ccc(/C=C/C(=O)NO)cc1 [Panobinostat]
sensitivity of forskolin-treated cells to MAPK-pathway inhibitors (WM266.4 [1]): restored sensitivity to MAPK-pathway inhibitors to levels approaching parental cells | acetylated histone H3 (WM266.4 [2]): increases | SOX10 and MITF expression (WM266.4 [2]): reduction

Cc1cnc(Nc2ccc(F)cc2Cl)nc1-c1c[nH]c(C(=O)N[C@H](CO)c2cccc(Cl)c2)c1 [VTX-11E]
effect of ectopic GEF expression on sensitivity to the inhibitor (A375): decreased sensitivity | sensitivity of A375 to the inhibitor (A375): sensitive

O=C(CCCCCCC(=O)Nc1ccccc1)NO [Vorinostat]
acetylated histone H3 (WM266.4 [2]): increases | SOX10 and MITF expression (WM266.4 [2]): reduction

C=C[C@@]1(C)CC(=O)[C@]2(O)[C@@]3(C)[C@@H](O)CCC(C)(C)[C@@H]3[C@H](O)[C@H](OC(C)=O)[C@@]2(C)O1 [forskolin]
increases in mRNA expression of MITF, FOS, NR4A1 and NR4A2 (WM266.4 [3]): 2- to 20 fold | ERK phosphorylation (WM266.4 [4]): no effect
